Results from US12606537B2, “Thiophene derivatives” (priority 2019, dated 2026).
Where two headings read alike, the source gives them in different places.

Assays:
HIF2a (240-350)-G = molecular target: T1, HIF2a (240-350)-G (Homo sapiens, UniProt Q99814); experiment: ITC (isothermal titration calorimetry) binding
T1 construct: The protein, HIF2a (240-350)-G, was prepared by recombinant overexpression; made in house
Procedure: ITC measurements were performed with a VP-ITC microcalorimeter from MicroCal/Malvern (UK). For all titration experiments the protein and the respective compounds were formulated in 30 mM HEPES buffer pH 7.5, 150 mM NaCl and 5 mM ß-mercaptoethanol. The protein, HIF2a (240-350)-G, was prepared by recombinant overexpression and multistep chromatography purification. Compounds were used from concentrated DMSO stock solutions. The final protein concentration in the injection syringe was 100 μM. Ligand stock solutions of 10 mM in DMSO were diluted to 10 μM concentrations with buffer and loaded into the sample cell. All buffers were adjusted to a final concentration of 1% (v/v) DMSO. Both, the titrate and titrant solutions were degassed prior to loading the calorimeter cell and injection syringe. […] The integrated heat data were fit with a one-site binding model to determine the apparent values for affinity, enthalpy and stoichiometry of binding.

[1] = molecular target: T2, interaction of the PAS B domains of HIF-2α and HIF-1β (Homo sapiens, UniProt Q99814); experiment: AlphaScreen protein protein interaction assay; type: biochemical
T2 construct: His6Gb1-TEV-GEFKGL-HIF2α (240-350aa)-G; His6 (N); Gb1 (protein G B1 domain) (N); TEV site (N)
T2 sequence (Q99814 240-350): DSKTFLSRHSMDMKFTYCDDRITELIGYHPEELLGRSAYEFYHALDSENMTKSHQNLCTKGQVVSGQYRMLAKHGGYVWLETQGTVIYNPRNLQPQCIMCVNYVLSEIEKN
Procedure: For the assessment of functional disruption of the interaction of the PAS B domains of HIF-2α and HIF-1β an AlphaScreen assay was set-up. The assay was performed in 384 well light gray Perkin Elmer microtiter plates in a total volume of 7 μl. […] The detection of the protein protein interaction was performed by adding AlphaLISA® Anti-FLAG Acceptor beads (fc 20 μg/mL) and AlphaScreen® Nickel Chelate Donor beads (fc 9 μg/mL) (both Perkin Elmer) and the reaction was incubated for 240 min at 23° C. in the dark. If donor and acceptor beads get in close proximity to each other caused by interaction of HIF2alpha PAS B with HIF-1ß PAS B domain it results in a luminescence signal at 615 nm after excitation at 680 nm. The PPI disruption activity of a compound was calculated directly from the loss in Alphascreen signal. The AlphaScreen signal was measured with an Envision multimode reader (Perkin Elmer LAS Germany GmbH). The control value used was the inhibitor-free reaction. The pharmacological zero value used was determined in the absence of HIF-1ß. The inhibitory values (IC50) were calculated using Assay analyser from GeneData.

HIF2α-HIF1β complex = experiment: Cellular mechanistic assay: 786-O HRE-luc2P reporter assay; type: cell-based, human
Procedure: This reporter assay was designed to monitor binding of the HIF2α-HIF1β complex to specific DNA fragment called hypoxia response element (HRE) in physiologically relevant cell line. […] HRE is present in promoters of various genes regulated by hypoxia inducible factors. […] As a result, this reporter assay allows monitoring of HIF2α-HIF1β activity by determining the activity of produced luciferase. Cell culture is performed in RPMI media supplemented with 10% FBS, Sodium Pyruvate, Penicillin/Streptomycin, Glutamine, 200 μg/mL Hygromycin Gold.
The assay was performed in 384 well white, opaque microtiterplate with transparent bottom (Greiner Bio-one, Frickenhausen). […] 50 μl of cell suspension (2000 cells) per well were dispensed in microtiter plates and incubated over night at 37° C. in a 5% CO2 incubator. Compounds were added with Labcyte Echo dispenser (fc 0.3% DMSO, 9 concentrations dilution raw starting at 30 μM). Plates were incubated for 48 h at 37° C. in a 5% CO2 incubator. After this 45 μl of prewarmed ONE-Glo™ EX Reagent were added per well. Plates were placed on an orbital shaker at 1200 rpm for 3 minutes. Plates were sealed and luminescence was measured a Tecan Spark 20M microplate reader (end-point measurement with 0.1 second reading time). Values were normalized to DMSO ctrl and wells without cells (only medium ctrl). Decrease in luminescence directly correlates with inhibition of HIF2α activity. EC50 values and % of effect values were calculated fitting a variable-slope sigmoidal function using Ryvu Therapeutics (formerly Selvita S.A.) DRC application or GraphPad Prism software.

[2] = Homo sapiens, 786-0, 48 h, read-out: HRE-luc2P reporter assay IC50, 786-O HRE-luc2P cells, 48 h incubation, luciferase luminescence
[3] = read-out: HRE-luc2P reporter assay IC50, 786-O HRE-luc2P cells, 48 h incubation, luciferase luminescence

T1 sequence (Q99814 240-350): as above

| Compound | Kd (HIF2a (240-350)-G) | IC50 [1] | IC50 (HIF2α-HIF1β complex; [2]) | IC50 (HIF2α-HIF1β complex; [3]) | IC50 ([1]; read-out: AlphaScreen IC50, disruption of HIF-2α / HIF-1β (ARNT) PAS B interaction, recombinant proteins 143 nM each) |
| --- | --- | --- | --- | --- | --- |
| CS(=O)(=O)c1sc(Oc2ccc(F)c(F)c2)c2c1C(O)C(F)(F)C2 (racemic) [Example 24a, 1-(3,4-difluorophenoxy)-5,5-difluoro-3-methanesulfonyl-4H,5H,6H-cyclopenta[c]thiophen-4-ol] | > 1000 nM | > 1000 nM | > 1000 nM |  |  |
| CCC(Oc1sc(S(C)(=O)=O)c2c1CC(F)(F)[C@H]2O)C(F)(F)F (single isomer, unassigned) [Example 9a] | 100 to 1000 nM | < 50 nM | > 1000 nM |  |  |
| CC(Oc1sc(S(C)(=O)=O)c2c1CC(F)(F)[C@H]2O)C(F)F (single isomer, unassigned) [Example 10a] |  | < 50 nM |  | > 1000 nM |  |
| CC(Oc1sc(S(C)(=O)=O)c2c1CC(F)(F)[C@H]2O)C(F)F (single isomer, unassigned) [Example 14a] |  |  |  | 50 to 1000 nM | < 50 nM |
| COC1(COc2sc(S(C)(=O)=O)c3c2CC(F)(F)[C@H]3O)CCC1 [Example 16a, (4S)-5,5-difluoro-3-methanesulfonyl-1-[(1-methoxycyclobutyl)methoxy]-4H,5H,6H-cyclopenta[c]thiophen-4-ol] | 100 to 1000 nM | < 50 nM | > 1000 nM |  |  |
| CS(=O)(=O)c1sc(OCC(F)(F)F)c2c1[C@H](O)[C@@H](F)C2 [Example 17a, (4S,5S)-5-fluoro-3-methanesulfonyl-1-(2,2,2-trifluoroethoxy)-4H,5H,6H-cyclopenta[c]thiophen-4-ol] |  | < 50 nM | 50 to 1000 nM |  |  |
| CS(=O)(=O)c1sc(OC2CCOCC2)c2c1[C@H](O)C(F)(F)C2 [Example 22a, (4S)-5,5-difluoro-3-methanesulfonyl-1-(oxan-4-yloxy)-4H,5H,6H-cyclopenta[c]thiophen-4-ol] | 100 to 1000 nM | < 50 nM |  |  |  |
| CS(=O)(=O)c1sc(OCCOC(F)(F)F)c2c1[C@H](O)C(F)(F)C2 [Example 23a, (4S)-5,5-difluoro-3-methanesulfonyl-1-[2-(trifluoromethoxy)ethoxy]-4H,5H,6H-cyclopenta[c]thiophen-4-ol] |  | < 50 nM | > 1000 nM |  |  |
| CS(=O)(=O)c1sc(Oc2ccc(F)cc2)c2c1[C@H](O)C(F)(F)C2 [Example 29a, (4S)-5,5-difluoro-1-(4-fluorophenoxy)-3-methanesulfonyl-4H,5H,6H-cyclopenta[c]thiophen-4-ol] | > 1000 nM | > 1000 nM | > 1000 nM |  |  |
| CS(=O)(=O)c1sc(Oc2cc(F)cc(Cl)c2)c2c1[C@H](O)C(F)(F)C2 [Example 30a, (4S)-1-(3-chloro-5-fluorophenoxy)-5,5-difluoro-3-methanesulfonyl-4H,5H,6H-cyclopenta[c]thiophen-4-ol] | > 1000 nM | > 1000 nM | > 1000 nM |  |  |
| CS(=O)(=O)c1sc(Oc2cccc(C#N)c2)c2c1[C@H](O)C(F)(F)C2 [Example 31a, 3-{[(4S)-5,5-difluoro-4-hydroxy-3-methanesulfonyl-4H,5H,6H-cyclopenta[c]thiophen-1-yl]oxy}benzonitrile] | > 1000 nM | > 1000 nM | > 1000 nM |  |  |
| CCOc1sc(S(C)(=O)=O)c2c1CC(F)(F)[C@H]2O [Example 32a, (4S)-1-ethoxy-5,5-difluoro-3-methanesulfonyl-4H,5H,6H-cyclopenta[c]thiophen-4-ol] |  | > 1000 nM | > 1000 nM |  |  |
| CS(=O)(=O)c1sc(Oc2ccc(F)c(F)c2)c2c1[C@H](O)C(F)(F)C2 [Example 34a, (4S)-1-(3,4-difluorophenoxy)-5,5-difluoro-3-methanesulfonyl-4H,5H,6H-cyclopenta[c]thiophen-4-ol] |  | 50 to 1000 nM | > 1000 nM |  |  |
